Data taken from PubChem BioAssay AID1963421 (Molecular Pharmacology Branch, DTP, NCI, 2024).
pIC50: −log10 of the molar value.

Tested on: 519858-162-T-J1-PDC complex spheroid growth, % test/control
Assay: Anticancer human tumor 519858-162-T-J1-PDC patient-derived colon adenocarcinoma cell line growth inhibition [Asc]
Settings: for pIC50: curve of first compound; for viability, T/C: stronger effect = lower value; active = viability on the fitted dose curve at most 10% of control; inactive = the rest
In short: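 Tumor cells were grown as multicellular spheroids with stromal HUVEC and mesenchymal stem cells and treated singly or in combination. Concentrations fell in half-log steps from the clinical Cmax, or from 10 microM where none was known.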
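Also: seven day drug exposure begun three days after spheroid seeding.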
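For viability, T/C in this document: 100% = DMSO vehicle wells and lower values mean less viable spheroid.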

NC(=O)C(=Cn1cnc(-c2cc(C(F)(F)F)cc(C(F)(F)F)c2)n1)c1cncnc1 + Cc1c(S(C)(=O)=O)c(-c2cc(F)cc(N3CCN(c4ccc(NS(=O)(=O)c5ccc(NC(CCN6CCC(C(=O)OCCCP(=O)(O)O)CC6)CSc6ccccc6)c(S(=O)(=O)C(F)(F)F)c5)cc4)CC3)c2)c(-c2ccc(Cl)cc2)n1C(C)C
< 6.52: pIC50 (second compound 0.0316 µM) | pIC50 (second compound 0.1 µM) | pIC50 (second compound 0.316 µM) | pIC50 (second compound 1 µM) | pIC50 (second compound 3.16 µM) | pIC50 (second compound 10 µM)
inactive: viability, T/C (second compound 0.0316 µM, first compound 0.000949 µM) 113% | viability, T/C (second compound 0.0316 µM, first compound 0.003 µM) 101% | viability, T/C (second compound 0.0316 µM, first compound 0.00949 µM) 87.4% | viability, T/C (second compound 0.0316 µM, first compound 0.03 µM) 66% | viability, T/C (second compound 0.0316 µM, first compound 0.0949 µM) 97.8% | viability, T/C (second compound 0.0316 µM, first compound 0.3 µM) 88.3% | viability, T/C (second compound 0.1 µM, first compound 0.000949 µM) 94.2% | viability, T/C (second compound 0.1 µM, first compound 0.003 µM) 89.1% | viability, T/C (second compound 0.1 µM, first compound 0.00949 µM) 93.7% | viability, T/C (second compound 0.1 µM, first compound 0.03 µM) 78.3% | viability, T/C (second compound 0.1 µM, first compound 0.0949 µM) 59.4% | viability, T/C (second compound 0.1 µM, first compound 0.3 µM) 98.2% | viability, T/C (second compound 0.316 µM, first compound 0.000949 µM) 97.4% | viability, T/C (second compound 0.316 µM, first compound 0.003 µM) 86% | viability, T/C (second compound 0.316 µM, first compound 0.00949 µM) 90.9% | viability, T/C (second compound 0.316 µM, first compound 0.03 µM) 60.7% | viability, T/C (second compound 0.316 µM, first compound 0.0949 µM) 82.7% | viability, T/C (second compound 0.316 µM, first compound 0.3 µM) 74.9% | viability, T/C (second compound 1 µM, first compound 0.000949 µM) 86.6% | viability, T/C (second compound 1 µM, first compound 0.003 µM) 122% | viability, T/C (second compound 1 µM, first compound 0.00949 µM) 65% | viability, T/C (second compound 1 µM, first compound 0.03 µM) 83.5% | viability, T/C (second compound 1 µM, first compound 0.0949 µM) 71.6% | viability, T/C (second compound 1 µM, first compound 0.3 µM) 71.5% | viability, T/C (second compound 3.16 µM, first compound 0.000949 µM) 79.8% | viability, T/C (second compound 3.16 µM, first compound 0.003 µM) 79.2% | viability, T/C (second compound 3.16 µM, first compound 0.00949 µM) 78.8% | viability, T/C (second compound 3.16 µM, first compound 0.03 µM) 50.3% | viability, T/C (second compound 3.16 µM, first compound 0.0949 µM) 54.6% | viability, T/C (second compound 3.16 µM, first compound 0.3 µM) 79.8% | viability, T/C (second compound 10 µM, first compound 0.000949 µM) 58.9% | viability, T/C (second compound 10 µM, first compound 0.003 µM) 59.7% | viability, T/C (second compound 10 µM, first compound 0.00949 µM) 71.2% | viability, T/C (second compound 10 µM, first compound 0.03 µM) 76.3% | viability, T/C (second compound 10 µM, first compound 0.0949 µM) 72.4% | viability, T/C (second compound 10 µM, first compound 0.3 µM) 60.1%

NC1CCC(NC2CC2c2ccccc2)CC1 (centres undefined) + Cc1c(S(C)(=O)=O)c(-c2cc(F)cc(N3CCN(c4ccc(NS(=O)(=O)c5ccc(NC(CCN6CCC(C(=O)OCCCP(=O)(O)O)CC6)CSc6ccccc6)c(S(=O)(=O)C(F)(F)F)c5)cc4)CC3)c2)c(-c2ccc(Cl)cc2)n1C(C)C
< 7.00: pIC50 (second compound 0.0316 µM) | pIC50 (second compound 0.1 µM) | pIC50 (second compound 0.316 µM) | pIC50 (second compound 1 µM) | pIC50 (second compound 3.16 µM) | pIC50 (second compound 10 µM)
inactive: viability, T/C (second compound 0.0316 µM, first compound 0.000316 µM) 106% | viability, T/C (second compound 0.0316 µM, first compound 0.001 µM) 128% | viability, T/C (second compound 0.0316 µM, first compound 0.00316 µM) 116% | viability, T/C (second compound 0.0316 µM, first compound 0.01 µM) 137% | viability, T/C (second compound 0.0316 µM, first compound 0.0316 µM) 115% | viability, T/C (second compound 0.0316 µM, first compound 0.1 µM) 70.6% | viability, T/C (second compound 0.1 µM, first compound 0.000316 µM) 134% | viability, T/C (second compound 0.1 µM, first compound 0.001 µM) 122% | viability, T/C (second compound 0.1 µM, first compound 0.00316 µM) 92.7% | viability, T/C (second compound 0.1 µM, first compound 0.01 µM) 94.8% | viability, T/C (second compound 0.1 µM, first compound 0.0316 µM) 79.9% | viability, T/C (second compound 0.1 µM, first compound 0.1 µM) 98.3% | viability, T/C (second compound 0.316 µM, first compound 0.000316 µM) 65.3% | viability, T/C (second compound 0.316 µM, first compound 0.001 µM) 109% | viability, T/C (second compound 0.316 µM, first compound 0.00316 µM) 142% | viability, T/C (second compound 0.316 µM, first compound 0.01 µM) 94% | viability, T/C (second compound 0.316 µM, first compound 0.0316 µM) 85.5% | viability, T/C (second compound 0.316 µM, first compound 0.1 µM) 107% | viability, T/C (second compound 1 µM, first compound 0.000316 µM) 96.3% | viability, T/C (second compound 1 µM, first compound 0.001 µM) 74.7% | viability, T/C (second compound 1 µM, first compound 0.00316 µM) 99.4% | viability, T/C (second compound 1 µM, first compound 0.01 µM) 60.3% | viability, T/C (second compound 1 µM, first compound 0.0316 µM) 134% | viability, T/C (second compound 1 µM, first compound 0.1 µM) 77.9% | viability, T/C (second compound 3.16 µM, first compound 0.000316 µM) 72.6% | viability, T/C (second compound 3.16 µM, first compound 0.001 µM) 113% | viability, T/C (second compound 3.16 µM, first compound 0.00316 µM) 97.3% | viability, T/C (second compound 3.16 µM, first compound 0.01 µM) 83.6% | viability, T/C (second compound 3.16 µM, first compound 0.0316 µM) 115% | viability, T/C (second compound 3.16 µM, first compound 0.1 µM) 116% | viability, T/C (second compound 10 µM, first compound 0.000316 µM) 69.7% | viability, T/C (second compound 10 µM, first compound 0.001 µM) 79% | viability, T/C (second compound 10 µM, first compound 0.00316 µM) 60.6% | viability, T/C (second compound 10 µM, first compound 0.01 µM) 77.1% | viability, T/C (second compound 10 µM, first compound 0.0316 µM) 55.4% | viability, T/C (second compound 10 µM, first compound 0.1 µM) 69.9%
